Measured values published in paper PMC4794652, “Identification of E-cadherin signature motifs functioning as cleavage sites for Helicobacter pylori HtrA” (Scientific Reports, 2016).
Entries after “also recorded” stand apart in the source; their conditions may differ. No end group written: not given here.

Columns and labels:
[1] = test system: HtrA wild-type (H. pylori); test: Direct peptide binding to immobilised HtrA by surface plasmon resonance (SPR); details: for direct binding to immobilised HtrA (SPR response) / concentration-dependent SPR binding to HtrA, C-terminal carboxyl vs amide: SPR-2, 25 °C, 25 μl/min; for direct binding to immobilised HtrA (SPR response): HBS-P (10 mM HEPES-buffered saline, 150 mM NaCl, 0.005% Tween), against significance threshold, in words (Fig. 4C); for concentration-dependent SPR binding to HtrA, C-terminal carboxyl vs amide: HBS-P, in words (Fig. 4D, S3B, S3C)
Method: Affinity studies were performed on a Sierra Sensors GmbH SPR-2 instrument. Measurements were performed at 25 °C with a flow rate of 25 μl/min. Carboxymethyl dextran matrix high-density sensor chips (SPR-2 Affinity Sensor HC, batch 10-BC-04-154-A, Sierra Sensors) were used to immobilise 20 μg/ml HtrA wild-type (wt) in 10 mM HEPES (HEPES buffer 1 M solution, pH 7.3, Fisher Scientific) by adding 198 μl amine coupling with an activation solution (200 mM N-ethyl-3-(3-dimethylaminopropyl)-carbodiimide [EDC] and 50 mM N-hydroxysuccinimide [NHS]). The SPR sensor surface was loaded with 100 μl protein and subsequently treated by injecting 192 μl of 1 M ethanolamine at pH 8.5 for inactivation of excess coupling groups. HBS-P (10 mM HEPES-buffered saline, 150 mM NaCl, 0.005% Tween) served as running and sample buffer for peptide measurements. Peptide samples were directly dissolved in HBS-P buffer. The experiments with the non-peptidic compounds were performed utilising HBS-PD running buffer (10 mM HEPES-buffered saline with 3% DMSO, 150 mM NaCl, 0.005% Tween).

H. pylori HtrA [2] = test: In vitro HtrA-mediated E-cadherin (rCdh1) cleavage, inhibition by peptides (Western blot); assay type: biochemical
Method: (§1) Proteins were separated by SDS PAGE and analysed by Western blot using specific antibodies against HtrA[21], the extracellular domains EC5 (H108, Santa Cruz Biotechnology and ab40772, Abcam), EC1 (SHE78-7, Invitrogen) and EC2 (HecD1, Calbiochem) of E-cadherin, or the intracellular domain (24E10, Cell Signaling). His6-tagged proteins were analysed using an anti-His5-antibody (Qiagen). GAPDH (Cell Signaling) and β-actin (Sigma) were detected as loading controls. Where indicated, signals of protein bands were quantified using the ImageLab software (BioRad). Graphical presentation and statistical evaluations (Student’s t-test) were performed with GraphPad Prism 5 and p-values of ***p ≤ 0.001, **p ≤ 0.01 and *p ≤ 0.05 were considered statistically significant.
Purification of recombinant H. pylori HtrA and in vitro cleavage assays have been described elsewhere. Briefly, 200 ng recombinant HtrA was incubated with 50 ng recombinant hCdh1 (R&D Systems) in 50 mM HEPES pH 7.4 and 100 μM EDTA for 16 h (or for the indicated time periods) at 37 °C. Where indicated, test peptides were added.

H. pylori HtrA [3] = test: Competition experiment: interference with P1-mediated HtrA inhibition (rCdh1 cleavage, Western blot); assay type: biochemical; details: 100 μM peptides, 50 ng rCdh1, 200 ng rHtrA, 16 h, 37 °C, in words (Fig. S4B)
Method: as §1
Purification of recombinant H. pylori HtrA and in vitro cleavage assays have been described elsewhere. […]
Figure S4. […] (A) Synthesized peptides based on the most frequent detected peptide during label-free mass spectrometry-based proteomic analysis. […] The cleavage fragments were analyzed by Western blot and detected using an antibody against the EC5. (D) Quantitative analysis of the relative amount of β-actin in whole cell lysates (WCL) of the H. pylor i-infected cells by blot densitometry from […]
1 Niessen, C. M. & Gumbiner, B. M. Cadherin-mediated cell sorting not determined by binding or […]

[4] = test system: H. pylori transmigration across MKN-28 cells; test: Transmigration of H. pylori across polarised MKN-28 cell monolayer (transwell filter assay); assay type: cell-based, H. pylori; human (MKN-28 cells); details: 100 μM, 200 μM, 500 μM P1; MOI 50; cfu from basal chamber; n = 3, mean ± std dev; in words (Fig. 5C)
Source text: (§2) The human gastric adenocarcinoma cell line AGS is E-cadherin-negative and was derived from an adenocarcinoma of the stomach of a person (ECACC, 89090402). AGS cells expressing hCdh1 were generated by transfection using a plasmid containing E-cadherin wild-type cDNA[50] which has been kindly provided by Rohan D. Teasdale (University of Queensland, Australia). E-cadherin-positive MKN-28 cells (JCRB, 0253, obtained from the Max-Planck Institute for Infection Biology) were originally described as being isolated from a moderately differentiated tubular adenocarcinoma and have been frequently used to study E-cadherin-dependent processes. The gastric epithelial NCI-N87 cells (ATCC, CRL-5822) were included as an additional E-cadherin-expressing cell line[24] and were derived from metastasis in the liver. All cells have been described previously[24][51] and were grown in RPMI 1640 medium containing 4 mM glutamine (Invitrogen) and 10% FCS (Sigma) in a humidified atmosphere at 37 °C. […] Adherence of H. pylori was quantitated in a cfu (colony-forming unit) assay. […] The number of cfu was determined by growth on agar plates for 72 h. […] The number of transmigrated bacteria was determined as cfu by taking aliquots from the basal chambers. […]

[5] = test system: HtrA in H. pylori-infected AGS cells; test: Inhibition of HtrA in H. pylori-infected AGS cells transfected with hCdh1 (formation of 90 kDa hCdh1 NTF fragment); assay type: cell-based, H. pylori; human (AGS cells); details: transfected AGS cells expressing hCdh1, H. pylori infection 16 h, 50 μl supernatant; blot densitometry, three independent experiments; in words (Fig. 5B)
Method: Figure 5 Inhibition of HtrA-mediated E-cadherin cleavage. (A) 50 ng rCdh1 was incubated with 200 ng HtrA and indicated concentrations of P1. rCdh1 fragments and HtrA were detected using specific antibodies. (B) Transfected AGS cells expressing hCdh1 were infected with H. pylori (Hp) or left untreated (–) for 16 h. 50 μl aliquots of the supernatants were separated by SDS PAGE and blotted onto membranes. The 90 kDa hCdh1^NTF fragment was detected by Western blots. The relative amount of hCdh1^NTF fragment was quantified by blot densitometry from three independent experiments. […] (C) Polarised MKN-28 cells grown on transwell filters were infected with H. pylori in the presence and absence of peptide P1 at different concentrations (100 μM, 200 μM, 500 μM). Bacteria that had transmigrated across the MKN-28 monolayer on the filter were counted (n = 3, mean ± std dev).
The human gastric adenocarcinoma cell line AGS is E-cadherin-negative and was derived from an adenocarcinoma of the stomach of a person (ECACC, 89090402). […] Adherence of H. pylori was quantitated in a cfu (colony-forming unit) assay. […] The number of cfu was determined by growth on agar plates for 72 h. […] The number of transmigrated bacteria was determined as cfu by taking aliquots from the basal chambers. […]

[6] = test system: HtrA in H. pylori infections of several other cell lines; test: Inhibition of hCdh1 NTF formation in H. pylori infections of several other cell lines; assay type: cell-based; details: different infection doses, data not shown, in words
Source text: as §2

NDNAPIPEPR [Peptide P5]
direct binding to immobilised HtrA (SPR response) [1]: positive binding response above the significance threshold

P1-NH2: P1 with a C-terminal alpha-amide (TGTLLLILSDVNDNAPIPEPR-NH2) [Peptide P1-NH2]
concentration-dependent SPR binding to HtrA, C-terminal carboxyl vs amide [1]: concentration-dependent binding

TGTLLLI [Peptide P1_NT, short peptide P1_NT, contains the hydrophobic amino acid stretch TGTLLLI]
blocking of HtrA-induced E-cadherin cleavage, 7-residue N-terminal peptides (H. pylori HtrA [2]; 100 μM peptide, 50 ng rCdh1, 200 ng rHtrA, 16 h, 37 °C, in words (Fig. S4B)): None of these peptides blocked HtrA-induced E-cadherin cleavage | interference with P1-mediated HtrA inhibition (H. pylori HtrA [3]): None of these peptides blocked HtrA-induced E-cadherin cleavage or interfered with P1-mediated HtrA inhibition

TGTLLLILSDVNDNAPIPEPR [Peptide P1]
H. pylori transmigration across polarised MKN-28 monolayer [4]: strong concentration-dependent reduction of H. pylori transmigration; also recorded: inhibition of H. pylori transmigration | formation of hCdh1 NTF fragment (bioactivity in H. pylori-infected AGS cells) [5]: significant dose-dependent decrease in the formation of the hCdh1^NTF; also recorded: weaker, but still significant at higher concentrations | inhibition of in vitro HtrA-mediated E-cadherin cleavage (H. pylori HtrA [2]; 100 μM peptide, 200 ng HtrA, 50 ng rCdh1, 50 mM HEPES pH 7.4, 100 μM EDTA, 16 h, 37 °C, Western blot, in words (Fig. 4A,B)): effectively inhibited in vitro HtrA-mediated E-cadherin cleavage; also recorded: efficiently inhibited HtrA-mediated E-cadherin cleavage | inhibition of HtrA-mediated rCdh1 cleavage, concentration dependence (H. pylori HtrA [2]; indicated concentrations of P1, 50 ng rCdh1, 200 ng HtrA, Western blot, in words (Fig. 5A)): strongly inhibited HtrA-mediated rCdh1 cleavage in a concentration-dependent manner | inhibition of HtrA-mediated E-cadherin cleavage in vitro (summary) (H. pylori HtrA [2]; summary statement without concentration, in words): efficiently blocked E-cadherin cleavage in vitro | decrease in formation of hCdh1 NTF in other cell lines and infection doses [6]: This effect was also observed in H. pylori infections of several other cell lines and at different infection doses | direct binding to immobilised HtrA (SPR response) [1]: strong binding | concentration-dependent SPR binding to HtrA, C-terminal carboxyl vs amide ([1]; listed as P1-OH): concentration-dependent binding; also recorded: stronger SPR signals; also recorded: greater SPR response than its amide counterpart | binding specificity for HtrA ([1]; in words): binds with high specificity
